Reference: publication PMC4881748 (Journal of the American Chemical Society, 2016)

Assays:
BoNT/A LC = BoNT/A LC (Clostridium botulinum, UniProt P0DPI0); format: biochemical, C. botulinum
[1] = system: BoNT/A SNAP-25 cleavage in hiPSC-derived neurons; format: cell-based, human
BoNT/A = conditions: cited from earlier work
[2] = system: BoNT/A SNAP-25 cleavage in hiPSC-derived neurons; format: cell-based, human; remark: listed apart in the source

Chain of BoNT/A LC (P0DPI0 2-448 limits assumed): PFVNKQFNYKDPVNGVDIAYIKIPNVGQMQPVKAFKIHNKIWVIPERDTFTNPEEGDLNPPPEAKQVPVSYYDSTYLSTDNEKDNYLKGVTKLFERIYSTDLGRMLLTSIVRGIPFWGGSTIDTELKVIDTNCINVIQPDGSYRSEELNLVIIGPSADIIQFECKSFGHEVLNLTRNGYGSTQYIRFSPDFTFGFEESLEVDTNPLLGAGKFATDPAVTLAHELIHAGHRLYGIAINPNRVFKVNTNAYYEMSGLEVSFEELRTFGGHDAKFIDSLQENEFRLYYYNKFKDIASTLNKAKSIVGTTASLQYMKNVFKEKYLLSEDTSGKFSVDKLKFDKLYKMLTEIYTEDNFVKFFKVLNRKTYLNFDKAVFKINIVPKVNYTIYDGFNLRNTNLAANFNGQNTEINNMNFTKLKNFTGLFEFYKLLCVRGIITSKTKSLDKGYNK

Row | Compound | Inhibition in the LC enzyme assay (BoNT/A LC) | Inhibition of SNAP-25 cleavage with delayed inhibitor addition [1] | EC50, SNAP-25 protection in cellular assay [2] | also measured
1 | O=C(O)CCC(=O)NO [4-(hydroxyamino)-4-oxobutanoic acid] | did not demonstrate any inhibition | – | – | –
2 | O=C1CCC(=O)N1O [N-hydroxysuccinimide (NHS), N-hydroxysuccinimide] | did not demonstrate any inhibition | – | – | –
3 | CO/C1=C\C(C)=C\[C@@H](C)[C@@H](O)[C@@H](C)C/C(C)=C/C=C/[C@H](OC)[C@@H]([C@@H](C)[C@@H](O)[C@H](C)[C@@]2(O)C[C@@H](O)[C@H](C)[C@@H](C(C)C)O2)OC1=O [bafilomycin A1] | – | initially effective | – | Activity when added 0.5 h after toxin exposure (BoNT/A): reduced activity; Activity when added simultaneously or immediately after BoNT/A (BoNT/A): presented activity
4 | CC(=O)O[C@@H]1C[C@H](O)[C@@]23CO[C@@H](O)[C@]1(C)[C@@H]2C[C@@H](O)[C@]1(C)[C@@H]3C(=O)[C@H](OC(C)=O)[C@@]2(C)[C@H](c3ccoc3)C[C@H]3O[C@]321 [toosendanin] | – | initially effective | – | –
5 | N-acetyl-N-(benzyloxy)acetamide [Compound 10] | – | – | Inactive | –
6 | O-benzyl N-hydroxysuccinimide [Compound 7] | – | – | Inactive | –
